According to US20090298820A1, “3-SUBSTITUTED-1H-PYRROLO[2,3-B]PYRIDINE AND 3-SUBSTITUTED-1H-PYRROLO[3,2-B]PYRIDINE COMPOUNDS, THEIR USE AS MTOR KINASE AND PI3 KINASE INHIBITORS, AND THEIR SYNTHESES” (Wyeth, priority 2008, published 2009):

Legend:
Format in all cases: biochemical
PI3Kα = PI3Kα (Homo sapiens, UniProt P42336); test: PI3K-alpha fluorescence polarization assay; conditions: read-out: PI3Kα Median IC50
PI3Kγ = PI3Kγ (Homo sapiens, UniProt P48736); test: PI3K-gamma fluorescence polarization assay; conditions: read-out: PI3Kγ Median IC50
PI3Kγ, sequence (P48736 whole entry, species assumed): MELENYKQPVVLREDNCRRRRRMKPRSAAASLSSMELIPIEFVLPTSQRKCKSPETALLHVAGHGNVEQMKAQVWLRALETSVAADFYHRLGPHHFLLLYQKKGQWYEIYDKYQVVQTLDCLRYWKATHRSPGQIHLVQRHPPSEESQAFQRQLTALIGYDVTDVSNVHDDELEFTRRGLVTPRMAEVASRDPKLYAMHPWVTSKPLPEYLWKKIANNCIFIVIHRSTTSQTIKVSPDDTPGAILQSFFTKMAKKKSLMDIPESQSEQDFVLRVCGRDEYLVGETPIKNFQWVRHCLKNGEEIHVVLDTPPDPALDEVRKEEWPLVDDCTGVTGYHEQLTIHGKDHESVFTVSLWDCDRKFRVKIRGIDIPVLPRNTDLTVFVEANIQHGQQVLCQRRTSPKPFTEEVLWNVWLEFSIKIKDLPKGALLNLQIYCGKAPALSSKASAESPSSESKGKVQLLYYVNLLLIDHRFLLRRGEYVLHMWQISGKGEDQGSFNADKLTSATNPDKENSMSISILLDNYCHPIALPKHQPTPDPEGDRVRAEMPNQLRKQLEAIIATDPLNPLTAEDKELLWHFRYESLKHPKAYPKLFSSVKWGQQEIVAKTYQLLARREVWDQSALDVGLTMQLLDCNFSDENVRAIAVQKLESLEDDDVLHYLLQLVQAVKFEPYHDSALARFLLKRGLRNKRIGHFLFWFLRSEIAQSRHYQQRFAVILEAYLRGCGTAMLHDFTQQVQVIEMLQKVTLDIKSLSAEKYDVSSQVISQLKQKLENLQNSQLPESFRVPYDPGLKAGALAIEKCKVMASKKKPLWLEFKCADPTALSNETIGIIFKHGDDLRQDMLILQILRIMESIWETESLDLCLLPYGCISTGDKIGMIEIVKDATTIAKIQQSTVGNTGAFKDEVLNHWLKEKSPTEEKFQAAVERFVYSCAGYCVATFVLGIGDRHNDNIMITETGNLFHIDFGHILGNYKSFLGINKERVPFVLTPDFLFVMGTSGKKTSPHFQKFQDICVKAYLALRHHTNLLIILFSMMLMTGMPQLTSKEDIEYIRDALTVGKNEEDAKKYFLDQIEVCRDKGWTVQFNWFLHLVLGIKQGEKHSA

mTOR = mTOR (Homo sapiens, UniProt P42345); test: mTOR enzyme assay (DELFIA format, His6-S6K substrate); conditions: read-out: mTOR Kinase Median IC50

PI3Kα, sequence (P42336 whole entry, species assumed): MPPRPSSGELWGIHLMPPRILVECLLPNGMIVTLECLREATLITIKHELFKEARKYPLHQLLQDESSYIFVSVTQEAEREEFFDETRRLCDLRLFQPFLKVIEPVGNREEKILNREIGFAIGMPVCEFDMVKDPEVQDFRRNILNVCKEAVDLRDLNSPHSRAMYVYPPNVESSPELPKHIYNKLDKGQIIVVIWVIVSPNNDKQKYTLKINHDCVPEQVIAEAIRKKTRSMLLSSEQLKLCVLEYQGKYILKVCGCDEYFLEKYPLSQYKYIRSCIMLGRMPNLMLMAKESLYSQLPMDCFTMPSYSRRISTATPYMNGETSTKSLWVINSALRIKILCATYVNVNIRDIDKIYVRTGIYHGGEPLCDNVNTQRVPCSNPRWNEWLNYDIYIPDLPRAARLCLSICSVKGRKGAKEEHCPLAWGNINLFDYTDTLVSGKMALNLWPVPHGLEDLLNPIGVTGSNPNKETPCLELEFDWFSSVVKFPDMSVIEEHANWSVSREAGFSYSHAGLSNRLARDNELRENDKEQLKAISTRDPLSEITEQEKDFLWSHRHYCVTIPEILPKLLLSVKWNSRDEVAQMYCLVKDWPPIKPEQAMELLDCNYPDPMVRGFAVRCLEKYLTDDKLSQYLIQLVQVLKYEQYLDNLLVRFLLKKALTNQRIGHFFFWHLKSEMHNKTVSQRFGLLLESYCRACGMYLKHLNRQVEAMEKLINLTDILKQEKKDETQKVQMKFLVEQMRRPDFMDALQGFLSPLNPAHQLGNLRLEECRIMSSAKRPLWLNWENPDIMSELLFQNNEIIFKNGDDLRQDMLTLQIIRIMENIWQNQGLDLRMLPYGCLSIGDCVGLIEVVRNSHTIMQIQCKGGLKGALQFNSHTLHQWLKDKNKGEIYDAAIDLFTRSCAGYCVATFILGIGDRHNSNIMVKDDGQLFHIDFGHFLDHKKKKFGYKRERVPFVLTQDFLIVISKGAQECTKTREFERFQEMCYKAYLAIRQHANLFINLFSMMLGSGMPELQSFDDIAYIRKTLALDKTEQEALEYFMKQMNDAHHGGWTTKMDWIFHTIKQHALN
PI3Kα, sequence (P27986 whole entry partner, species assumed): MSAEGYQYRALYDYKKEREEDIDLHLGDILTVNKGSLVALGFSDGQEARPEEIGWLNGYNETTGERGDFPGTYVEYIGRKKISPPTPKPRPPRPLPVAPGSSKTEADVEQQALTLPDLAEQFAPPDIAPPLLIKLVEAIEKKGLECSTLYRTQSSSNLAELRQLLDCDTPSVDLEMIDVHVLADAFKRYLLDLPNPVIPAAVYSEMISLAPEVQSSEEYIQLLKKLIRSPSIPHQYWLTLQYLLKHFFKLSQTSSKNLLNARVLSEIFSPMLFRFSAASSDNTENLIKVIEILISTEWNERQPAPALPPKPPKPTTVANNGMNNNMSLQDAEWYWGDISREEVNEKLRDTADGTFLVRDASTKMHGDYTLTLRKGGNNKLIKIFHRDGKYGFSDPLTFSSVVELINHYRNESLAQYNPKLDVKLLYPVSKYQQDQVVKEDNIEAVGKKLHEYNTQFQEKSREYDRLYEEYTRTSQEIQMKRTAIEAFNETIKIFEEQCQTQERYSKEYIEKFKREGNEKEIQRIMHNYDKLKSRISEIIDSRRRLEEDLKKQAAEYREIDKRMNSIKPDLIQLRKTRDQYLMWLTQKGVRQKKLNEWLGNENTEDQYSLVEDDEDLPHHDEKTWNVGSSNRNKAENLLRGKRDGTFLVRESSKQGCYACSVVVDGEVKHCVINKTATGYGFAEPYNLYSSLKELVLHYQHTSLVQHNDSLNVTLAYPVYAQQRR

Molecule | IC50 (PI3Kα) | IC50 (PI3Kγ) | IC50 (mTOR)
1-cyclopropyl-3-[(2Z)-2-{[1-methyl-4-(8-oxa-3-azabicyclo[3.2.1]oct-3-yl)-1H-pyrrolo[2,3-b]pyridin-3-yl]methylidene}-3-oxo-2,3-dihydro-1-benzofuran-5-yl]urea [Compound 237] | 289 nM | 2130 nM | 23 nM
Cn1cc(C=C2Oc3cc(O)cc(O)c3C2=O)c2cccnc21 [Compound 1, 4,6-dihydroxy-2-[(1-methyl-1H-pyrrolo[2,3-b]pyridin-3-yl)methylene]-1-benzofuran-3(2H)-one] | 64 nM | 168 nM | 41.5 nM
Cn1cc(C=C2Oc3c(ccc(O)c3O)C2=O)c2cccnc21 [Compound 2, 6,7-dihydroxy-2-[(1-methyl-1H-pyrrolo[2,3-b]pyridin-3-yl)methylene]-1-benzofuran-3(2H)-one] | 2340 nM | – | –
COc1ccc2c(n1)c(C=C1Oc3cc(O)cc(O)c3C1=O)cn2C [Compound 3, 4,6-dihydroxy-2-[(5-methoxy-1-methyl-1H-pyrrolo[3,2-b]pyridin-3-yl)methylene]-1-benzofuran-3(2H)-one] | 506 nM | > 10000 nM | 685 nM
COc1ccc2c(n1)c(C=C1Oc3c(ccc(O)c3O)C1=O)cn2C [Compound 4, 6,7-dihydroxy-2-[(5-methoxy-1-methyl-1H-pyrrolo[3,2-b]pyridin-3-yl)methylene]-1-benzofuran-3(2H)-one] | 676 nM | 8500 nM | –
COc1ccc2c(n1)c(C=C1Oc3cccc(O)c3C1=O)cn2C [Compound 5, 4-hydroxy-2-[(5-methoxy-1-methyl-1H-pyrrolo[3,2-b]pyridin-3-yl)methylene]-1-benzofuran-3(2H)-one] | 3930 nM | > 10000 nM | > 20000 nM
CN1CCN(CCCn2cc(C=C3Oc4cc(O)cc(O)c4C3=O)c3cccnc32)CC1 [Compound 6, 4,6-dihydroxy-2-({1-[3-(4-methylpiperazin-1-yl)propyl]-1H-pyrrolo[2,3-b]pyridin-3-yl}methylene)-1-benzofuran-3(2H)-one] | 5890 nM | > 10000 nM | –
O=C1C(=Cc2cn(CCCN3CCOCC3)c3ncccc23)Oc2cc(O)cc(O)c21 [Compound 7, 4,6-dihydroxy-2-{[1-(3-morpholin-4-ylpropyl)-1H-pyrrolo[2,3-b]pyridin-3-yl]methylene}-1-benzofuran-3(2H)-one] | 921 nM | > 10000 nM | –
CN1CCN(CCCn2cc(C=C3Oc4c(ccc(O)c4O)C3=O)c3cccnc32)CC1 [Compound 8, 6,7-dihydroxy-2-({1-[3-(4-methylpiperazin-1-yl)propyl]-1H-pyrrolo[2,3-b]pyridin-3-yl}methylene)-1-benzofuran-3(2H)-one] | 203 nM | 9000 nM | –
O=C1C(=Cc2cn(CCCN3CCOCC3)c3ncccc23)Oc2c1ccc(O)c2O [Compound 9, 6,7-dihydroxy-2-{[1-(3-morpholin-4-ylpropyl)-1H-pyrrolo[2,3-b]pyridin-3-yl]methylene}-1-benzofuran-3(2H)-one] | 135 nM | 9170 nM | –
O=C1C(=Cc2cn(CCCN3CCN(CCO)CC3)c3ncccc23)Oc2c1ccc(O)c2O [Compound 10, 6,7-dihydroxy-2-[(1-{3-[4-(2-hydroxyethyl)piperazin-1-yl]propyl}-1H-pyrrolo[2,3-b]pyridin-3-yl)methylene]-1-benzofuran-3(2H)-one] | > 10000 nM | > 10000 nM | –
O=C1C(=Cc2c[nH]c3ncccc23)Oc2cc(O)cc(O)c21 [Compound 11, 4,6-dihydroxy-2-(1H-pyrrolo[2,3-b]pyridin-3-ylmethylene)-1-benzofuran-3(2H)-one] | 525 nM | – | 1200 nM
Cn1cc(/C=C2\Oc3cc(O)cc(O)c3C2=O)c2c(-c3ccccc3Cl)ccnc21 [Compound 12, (2Z)-2-{[4-(2-chlorophenyl)-1-methyl-1H-pyrrolo[2,3-b]pyridin-3-yl]methylene}-4,6-dihydroxy-1-benzofuran-3(2H)-one] | 167 nM | 270 nM | 2.8 nM
Cn1cc(/C=C2\Oc3cc(O)cc(O)c3C2=O)c2c(-c3cccc(Cl)c3)ccnc21 [Compound 13, (2Z)-2-{[4-(3-chlorophenyl)-1-methyl-1H-pyrrolo[2,3-b]pyridin-3-yl]methylene}-4,6-dihydroxy-1-benzofuran-3(2H)-one] | 116 nM | 79 nM | 1.2 nM
COc1ccccc1-c1ccnc2c1c(/C=C1\Oc3cc(O)cc(O)c3C1=O)cn2C [Compound 14, (2Z)-4,6-dihydroxy-2-{[4-(2-methoxyphenyl)-1-methyl-1H-pyrrolo[2,3-b]pyridin-3-yl]methylene}-1-benzofuran-3(2H)-one] | 188 nM | 220 nM | 1.4 nM
Cn1cc(/C=C2\Oc3cc(O)cc(O)c3C2=O)c2c(-c3ccc(OC(F)(F)F)cc3)ccnc21 [Compound 15, (2Z)-4,6-dihydroxy-2-({1-methyl-4-[4-(trifluoromethoxy)phenyl]-1H-pyrrolo[2,3-b]pyridin-3-yl}methylene)-1-benzofuran-3(2H)-one] | – | – | 1 nM
Cn1cc(/C=C2\Oc3cc(O)cc(O)c3C2=O)c2c(-c3ccc(OCCn4ccnc4)cc3)ccnc21 [Compound 16, (2Z)-4,6-dihydroxy-2-[(4-{4-[2-(1H-imidazol-1-yl)ethoxy]phenyl}-1-methyl-1H-pyrrolo[2,3-b]pyridin-3-yl)methylene]-1-benzofuran-3(2H)-one] | 24 nM | 247 nM | 5 nM
Cn1cc(/C=C2\Oc3cc(O)cc(O)c3C2=O)c2c(-c3ccc(S(N)(=O)=O)cc3)ccnc21 [Compound 17, 4-{3-[(Z)-(4,6-dihydroxy-3-oxo-1-benzofuran-2(3H)-ylidene)methyl]-1-methyl-1H-pyrrolo[2,3-b]pyridin-4-yl}benzenesulfonamide] | 7 nM | 57 nM | 0.3 nM
Cn1cc(/C=C2\Oc3cc(O)cc(O)c3C2=O)c2c(-c3cccc(NS(C)(=O)=O)c3)ccnc21 [Compound 18, N-(3-{3-[(Z)-(4,6-dihydroxy-3-oxo-1-benzofuran-2(3H)-ylidene)methyl]-1-methyl-1H-pyrrolo[2,3-b]pyridin-4-yl}phenyl)methanesulfonamide] | 19 nM | 106 nM | 2.7 nM
Cn1cc(/C=C2\Oc3cc(O)cc(O)c3C2=O)c2c(-c3ccc(O)cc3)ccnc21 [Compound 19, (2Z)-4,6-dihydroxy-2-{[4-(4-hydroxyphenyl)-1-methyl-1H-pyrrolo[2,3-b]pyridin-3-yl]methylene}-1-benzofuran-3(2H)-one] | 14 nM | 35 nM | 0.5 nM
Cn1cc(/C=C2\Oc3cc(O)cc(O)c3C2=O)c2c(-c3ccc(C(N)=NO)cc3)ccnc21 [Compound 20, 4-{3-[(Z)-(4,6-dihydroxy-3-oxo-1-benzofuran-2(3H)-ylidene)methyl]-1-methyl-1H-pyrrolo[2,3-b]pyridin-4-yl}-N′-hydroxybenzenecarboximidamide] | 6 nM | 44 nM | 0.2 nM
Cn1cc(/C=C2\Oc3cccc(O)c3C2=O)c2c(-c3cccc(S(N)(=O)=O)c3)ccnc21 [Compound 21, 3-{3-[(Z)-(4-hydroxy-3-oxo-1-benzofuran-2(3H)-ylidene)methyl]-1-methyl-1H-pyrrolo[2,3-b]pyridin-4-yl}benzenesulfonamide] | 34 nM | 140 nM | 3.5 nM
CN1CCN(c2ccnc3c2c(/C=C2\Oc4cc(O)cc(O)c4C2=O)cn3C)CC1 [Compound 44, (2Z)-4,6-dihydroxy-2-{[1-methyl-4-(4-methylpiperazin-1-yl)-1H-pyrrolo[2,3-b]pyridin-3-yl]methylene}-1-benzofuran-3(2H)-one] | 44 nM | 200 nM | –
Cn1cc(/C=C2\Oc3cccc(O)c3C2=O)c2c(-c3ccc(C(=O)N4CCOCC4)cc3)ccnc21 [Compound 128, (2Z)-4-hydroxy-2-({1-methyl-4-[4-(morpholin-4-ylcarbonyl)phenyl]-1H-pyrrolo[2,3-b]pyridin-3-yl}methylene)-1-benzofuran-3(2H)-one] | – | – | 0.5 nM
CN(C)S(=O)(=O)c1ccc(-c2ccnc3c2c(/C=C2\Oc4cccc(O)c4C2=O)cn3C)cc1 [Compound 180, 4-{3-[(Z)-(4-hydroxy-3-oxo-1-benzofuran-2(3H)-ylidene)methyl]-1-methyl-1H-pyrrolo[2,3-b]pyridin-4-yl}-N,N-dimethylbenzenesulfonamide] | – | – | 2.9 nM
Cn1cc(/C=C2\Oc3cccc(O)c3C2=O)c2c(-c3ccc(C(=O)NCCO)cc3)ccnc21 [Compound 182, N-(2-hydroxyethyl)-4-{3-[(Z)-(4-hydroxy-3-oxo-1-benzofuran-2(3H)-ylidene)methyl]-1-methyl-1H-pyrrolo[2,3-b]pyridin-4-yl}benzamide] | – | – | 1.6 nM
CN(C)C(=O)CN(C)C(=O)C1CCN(c2ccnc3c2c(C=C2Oc4ccc(NC(=O)Nc5cccnc5)cc4C2=O)cn3C)CC1 [Compound 201, N-[2-(dimethylamino)-2-oxoethyl]-N-methyl-1-[1-methyl-3-({3-oxo-5-[(pyridin-3-ylcarbamoyl)amino]-1-benzofuran-2(3H)-ylidene}methyl)-1H-pyrrolo[2,3-b]pyridin-4-yl]piperidine-4-carboxamide] | – | – | 7.7 nM
Cn1cc(/C=C2\Oc3ccc(NC(=O)NC4CCCCC4)cc3C2=O)c2c(N3CC4CCC(C3)O4)ccnc21 [Compound 236, 1-cyclohexyl-3-[(2Z)-2-{[1-methyl-4-(8-oxa-3-azabicyclo[3.2.1]oct-3-yl)-1H-pyrrolo[2,3-b]pyridin-3-yl]methylidene}-3-oxo-2,3-dihydro-1-benzofuran-5-yl]urea] | 1470 nM | 2970 nM | –
Cn1cc(/C=C2\Oc3ccc(NC(=O)Nc4ccc(Cl)nc4)cc3C2=O)c2c(N3CC4CCC(C3)O4)ccnc21 [Compound 299, 1-(6-chloropyridin-3-yl)-3-[(2Z)-2-{[1-methyl-4-(8-oxa-3-azabicyclo[3.2.1]oct-3-yl)-1H-pyrrolo[2,3-b]pyridin-3-yl]methylidene}-3-oxo-2,3-dihydro-1-benzofuran-5-yl]urea] | – | – | 69 nM
